Measured values from ChEMBL document CHEMBL4393704, “Synthesis and biological evaluation of dihydroquinazoline-2-amines as potent non-nucleoside reverse transcriptase inhibitors of wild-type and mutant HIV-1 strains” (Eur J Med Chem, 2019).

Columns and labels:
[1] = Cytotoxicity against human MT4 cells measured after 5 days by MTT assay; format: cell-based
[2] = test system: Human immunodeficiency virus 1; assay: Antiviral activity against wild type HIV-1 3B infected in MT4 cells measured after 5 days by MTT assay; format: functional, organism-based; details: Human immunodeficiency virus 1, 3B, MT4, 120 h
[3] = Selectivity index, ratio of CC50 for human MT4 cells to EC50 for HIV-1 3B infected in MT4 cells; format: toxicity, cell-based; details: HIV-1 3B infected MT4 cells, read-out: Ratio CC50/EC50
[4] = test system: Human immunodeficiency virus 1; assay: Antiviral activity against HIV-1 3B harboring reverse transcriptase E138K mutant infected in MT4 cells measured after 5 days by MTT assay; format: functional, organism-based; details: Human immunodeficiency virus 1, 3B, MT4, 120 h
[5] = test system: Human immunodeficiency virus 1; assay: Antiviral activity against HIV-1 3B harboring reverse transcriptase RES056 mutant infected in MT4 cells measured after 5 days by MTT assay; format: functional, organism-based; details: Human immunodeficiency virus 1, 3B, MT4, 120 h
[6] = target: Human immunodeficiency virus type 1 reverse transcriptase (Human immunodeficiency virus 1, UniProt Q72547); assay: Inhibition of recombinant wild-type HIV1 3B reverse transcriptase assessed as reduction in biotin-dUTP incorporation using poly(rA)/oligo(dT)16 as template primer incubated for 1 hr followed by the addition of (DIG)-dUTP and biotin-labeled dNTPs by ELISA
[7] = test system: Human immunodeficiency virus 1; assay: Potency index, ratio of ETV EC50 to compound EC50 for antiviral activity against wild type HIV-1 3B infected in MT4 cells measured after 5 days by MTT assay; format: functional
[8] = test system: Human immunodeficiency virus 1; assay: Potency index, ratio of ETV EC50 to compound EC50 for antiviral activity against HIV-1 3B harboring reverse transcriptase E138K mutant infected in MT4 cells measured after 5 days by MTT assay; format: functional
[9] = test system: Human immunodeficiency virus 1; assay: Potency index, ratio of EFV EC50 to compound EC50 for antiviral activity against wild type HIV-1 3B infected in MT4 cells measured after 5 days by MTT assay; format: functional

Row | SMILES | CC50 at 120 h [1] [nM] | EC50 [2] [nM] | selectivity ratio [3] | EC50 [4] [nM] | EC50 [5] [nM] | IC50 [6] [nM] | Ratio EC50 [7] | Ratio EC50 [8] | Ratio EC50 [9]
1 | Fc1ccc(NC2=Nc3ccc(Cl)cc3C(C#CC3CC3)(C(F)(F)F)N2)cc1F (stereo not given) | 1800 | 360 | 5 | > 1800 | > 1800 |  |  |  | 
2 | Cc1ccccc1NC1=Nc2ccc(Cl)cc2C(C#CC2CC2)(C(F)(F)F)N1 (stereo not given) | 4100 | 140 | 30 | 400 | > 4100 |  |  |  | 
3 | Cc1ccc(NC2=Nc3ccc(Cl)cc3C(C#CC3CC3)(C(F)(F)F)N2)cc1 (stereo not given) | 5000 | 250 | 20 | 400 | > 4900 |  |  |  | 
4 | COc1cccc(NC2=Nc3ccc(Cl)cc3C(C#CC3CC3)(C(F)(F)F)N2)c1 (stereo not given) | 2700 | 63 | 44 | 290 | > 2600 | 1.1 |  |  | 
5 | FC(F)(F)C1(C#CC2CC2)NC(Nc2ccc(Br)cc2)=Nc2ccc(Cl)cc21 (stereo not given) | > 3400 | 450 | > 8 | > 3400 | > 3400 |  |  |  | 
6 | Fc1ccc(NC2=Nc3ccc(Cl)cc3C(C#CC3CC3)(C(F)(F)F)N2)cc1 (stereo not given) | 2400 | 250 | 9 | 460 | > 2300 |  |  |  | 
7 | Cc1cc(C#N)cc(C)c1Oc1nc(Nc2ccc(C#N)cc2)nc(N)c1Br [ETRAVIRINE] | > 2000 |  | > 923 | 6.3 | 15 |  |  |  | 
8 | O=C1Nc2ccc(Cl)cc2[C@@](C#CC2CC2)(C(F)(F)F)O1 [EFAVIRENZ] | > 2000 |  |  | 2 | 55 |  |  |  | 
9 | FC(F)(F)C1(C#CC2CC2)NC(Nc2cccc(Cl)c2)=Nc2ccc(Cl)cc21 (stereo not given) | 2000 | 210 | 9 | 480 | > 2000 |  |  |  | 
10 | Fc1ccccc1NC1=Nc2ccc(Cl)cc2C(C#CC2CC2)(C(F)(F)F)N1 (stereo not given) | 3100 | 100 | 31 | 140 | > 3100 |  |  |  | 
11 | Cc1ccc(NC2=Nc3ccc(Cl)cc3C(C#CC3CC3)(C(F)(F)F)N2)cc1C (stereo not given) | 5900 | 610 | 8 | 560 | > 5800 |  |  |  | 
12 | COc1ccc(NC2=Nc3ccc(Cl)cc3C(C#CC3CC3)(C(F)(F)F)N2)cc1 (stereo not given) | 8400 | 260 | 32 | 410 | > 8400 |  |  |  | 
13 | FC(F)(F)c1cccc(NC2=Nc3ccc(Cl)cc3C(C#CC3CC3)(C(F)(F)F)N2)c1 (stereo not given) | 3300 | 51 | 64 | 350 | > 3200 | 4.5 |  |  | 
14 | Fc1cccc(NC2=Nc3ccc(Cl)cc3C(C#CC3CC3)(C(F)(F)F)N2)c1 (stereo not given) | 2000 | 160 | 12 | 340 | > 2000 |  |  |  | 
15 | Fc1ccc(NC2=Nc3ccc(Cl)cc3C(C#CC3CC3)(C(F)(F)F)N2)cc1Cl (stereo not given) | 1900 | 190 | 10 | 460 | > 1800 |  |  |  | 
16 | Cc1cc(C)cc(NC2=Nc3ccc(Cl)cc3C(C#CC3CC3)(C(F)(F)F)N2)c1 (stereo not given) | 2100 | 360 | 6 | 600 | > 2100 |  |  |  | 
17 | N#Cc1ccc(NC2=Nc3ccc(Cl)cc3C(C#CC3CC3)(C(F)(F)F)N2)cc1 (stereo not given) | 1900 | 0.84 | 2300 | 3.5 | 66 | 10 | 9 | 2 | 2
18 | O=[N+]([O-])c1cccc(NC2=Nc3ccc(Cl)cc3C(C#CC3CC3)(C(F)(F)F)N2)c1 (stereo not given) | 1600 | 120 | 14 | 360 | > 1600 |  |  |  | 
19 | NC(=O)c1ccc(NC2=Nc3ccc(Cl)cc3C(C#CC3CC3)(C(F)(F)F)N2)cc1 (stereo not given) | 12000 | 220 | 58 | 160 | > 2900 |  |  |  | 
20 | FC(F)(F)C1(C#CC2CC2)NC(Nc2ccccc2Br)=Nc2ccc(Cl)cc21 (stereo not given) | 11000 | 88 | 133 | 160 | 1800 | 3.4 |  |  | 
21 | Cc1cccc(NC2=Nc3ccc(Cl)cc3C(C#CC3CC3)(C(F)(F)F)N2)c1 (stereo not given) | 2100 | 210 | 10 | 360 | > 2100 |  |  |  | 
22 | FC(F)(F)C1(C#CC2CC2)NC(Nc2cccc(Br)c2)=Nc2ccc(Cl)cc21 (stereo not given) | 2100 | 150 | 14 | 420 | > 2100 |  |  |  | 
23 | N#Cc1cccc(NC2=Nc3ccc(Cl)cc3C(C#CC3CC3)(C(F)(F)F)N2)c1 (stereo not given) | 2200 | 440 | 5 | 650 | > 2200 |  |  |  | 
24 | FC(F)(F)C1(C#CC2CC2)NC(Nc2ccccc2)=Nc2ccc(Cl)cc21 (stereo not given) | 2400 | 110 | 21 | 380 | > 2400 |  |  |  | 
25 | FC(F)(F)C1(C#CC2CC2)NC(Nc2ccc(Cl)c(Cl)c2)=Nc2ccc(Cl)cc21 (stereo not given) | 2100 | 30 | 70 | 170 | > 2100 | 3.7 |  |  | 
26 | COc1ccccc1NC1=Nc2ccc(Cl)cc2C(C#CC2CC2)(C(F)(F)F)N1 (stereo not given) | 8600 | 150 | 58 | 190 | > 8600 |  |  |  | 
